Data as given in ChEMBL document CHEMBL5357021, “Novel Triazolopyridine-Based BRD4 Inhibitors as Potent HIV-1 Latency Reversing Agents” (ACS Med Chem Lett, 2024).
Active and inactive are the calls of the source. No cut-off for these calls is given here.

Columns and labels:
[1] = molecular target: Bromodomain-containing protein 4 (Homo sapiens) (UniProt O60885); experiment: Inhibition of BRD4 BD2 domain (unknown origin) at 1 uM by HTRF assay
[2] = molecular target: Bromodomain-containing protein 4 (Homo sapiens) (UniProt O60885); experiment: Inhibition of BRD4 BD1 domain (unknown origin) at 1 uM by HTRF assay
[3] = test system: Human immunodeficiency virus 1; experiment: Anti-HIV activity against HIV-1IIIB acute infected in human C8166 cells assessed as inhibition of p24 expression at 25 nM incubated for 72 hrs by ELISA assay in presence of N-(4-(2,4-difluorophenoxy)-3-(3-methyl-[1,2,4]triazolo[4,3-a]pyridin-6-yl)phenyl)-4-fluorobenzenesulfonamide; format: functional, organism-based
[4] = Cytotoxicity against human non-infected J-Lat A10.6 cells assessed as cell death by CCK8 assay; format: toxicity, cell-based, J-Lat 10.6
[5] = test system: Human immunodeficiency virus 1; experiment: Reversal of HIV-1 latency in CD4+ T-lymphoid J-Lat cells contains HIV-1 long terminal repeats (LTR)-Tat-GFP assessed as reactivation measured after 48 hrs by flow cytometry; format: functional, organism-based; conditions: Human immunodeficiency virus 1, J-Lat 10.6, 48 h
[6] = test system: Human immunodeficiency virus 1; experiment: Reversal of HIV-1 latency in ACH-2 cell line contains complete HIV-1 provirus assessed as reactivation by measuring HIV-1 p24 antigen expression 5 uM measured after 48 hrs by ELISA; format: functional, organism-based
PBMC [7] = experiment: Immune hyper-activation in human PBMC cells assessed as CD69 expression at 1 uM measured after 48 hrs by flow cytometry; format: toxicity, cell-based
[8] = molecular target: Bromodomain-containing protein 4 (Homo sapiens) (UniProt O60885); experiment: Inhibition of BRD4 in human J-Lat 10.6 cells contains HIV-1 long terminal repeats (LTR)-Tat-GFP assessed as increased RNA pol II enrichment in LTR at 1 uM incubated for 6 hrs by ChiP assay; format: cell-based
PBMC [9] = experiment: Immune hyper-activation in human PBMC cells assessed as CD25 expression at 1 uM measured after 48 hrs by flow cytometry; format: toxicity, cell-based
[10] = molecular target: Bromodomain-containing protein 4 (Homo sapiens) (UniProt O60885); experiment: Inhibition of BRD4 phosphorylation in human J-Lat A10.6 cells contains HIV-1 long terminal repeats (LTR)-Tat-GFP at 1 uM measured after 24 hrs by Western blotting analysis; format: cell-based; conditions: J-Lat 10.6
PBMC [11] = experiment: Immune hyper-activation in human PBMC cells assessed as HLA-DR expression at 1 uM measured after 48 hrs by flow cytometry; format: toxicity, cell-based
[12] = molecular target: Bromodomain-containing protein 4 (Homo sapiens) (UniProt O60885); experiment: Inhibition of BRD4 in human J-Lat 10.6 cells contains HIV-1 long terminal repeats (LTR)-Tat-GFP assessed as increased CDK9 enrichment in LTR at 1 uM incubated for 6 hrs by ChiP assay; format: cell-based
C8166 = experiment: Anti-HIV activity against HIV-1IIIB acute infected in human C8166 cells assessed as inhibition of p24 expression at 1 nM incubated for 72 hrs by ELISA assay in presence of N-(4-(2,4-difluorophenoxy)-3-(3-methyl-[1,2,4]triazolo[4,3-a]pyridin-6-yl)phenyl)-4-fluorobenzenesulfonamide; format: functional, cell-based
[13] = test system: Human immunodeficiency virus 1; experiment: Anti-HIV activity against HIV-1IIIB acute infected in human C8166 cells assessed as inhibition of p24 expression at 50 nM incubated for 72 hrs by ELISA assay in presence of N-(4-(2,4-difluorophenoxy)-3-(3-methyl-[1,2,4]triazolo[4,3-a]pyridin-6-yl)phenyl)-4-fluorobenzenesulfonamide; format: functional, organism-based

| SMILES | inhibition [1] | inhibition [2] | CC50 [4] [µM] | EC50 [5] [µM] | also measured |
| --- | --- | --- | --- | --- | --- |
| Cn1cc(-c2cc(NS(=O)(=O)c3ccc(F)cc3)ccc2Oc2ccc(Cl)cc2F)c2cc[nH]c2c1=O | Active | Active |  |  |  |
| CC(C)CN(C[C@@H](O)[C@H](Cc1ccccc1)NC(=O)O[C@H]1CO[C@H]2OCC[C@H]21)S(=O)(=O)c1ccc(N)cc1 |  |  |  |  | Activity [3]: Active |
| CCCS(=O)(=O)Nc1ccc(Oc2ccc(F)cc2F)c(-c2ccc3nnc(C)n3c2)c1 | Active | Active | 44.7 | 5.4 |  |
| Cc1nnc2ccc(-c3cc(NS(=O)(=O)c4ccccc4)ccc3Oc3ccc(F)cc3F)cn12 | Active | Active | > 50 | > 50 |  |
| CCS(=O)(=O)Nc1ccc(Oc2ccc(Cl)cc2Cl)c(-c2ccc3nnc(C)n3c2)c1 |  |  |  |  | Activity [6]: Active |
| Cc1nnc2ccc(-c3cc(NC(=O)CCCCCCC(=O)NO)ccc3Oc3ccc(Cl)cc3F)cn12 |  |  | 28.7 | 13.4 |  |
| COc1ccc(Br)cc1S(=O)(=O)Nc1ccc(Oc2ccc(F)cc2F)c(-c2ccc3nnc(C)n3c2)c1 |  |  | > 50 | > 50 |  |
| Cc1nnc2ccc(-c3cc(NS(=O)(=O)c4ccc(C(F)(F)F)cc4)ccc3Oc3ccc(F)cc3F)cn12 |  |  | > 50 | > 50 |  |
| Cc1ccc(S(=O)(=O)Nc2ccc(Oc3ccc(F)cc3F)c(-c3ccc4nnc(C)n4c3)c2)cc1 |  |  | > 50 | > 50 |  |
| Cc1nnc2ccc(-c3cc(NC(=O)C4CC4)ccc3Oc3ccc(F)cc3F)cn12 |  |  | > 50 | > 50 |  |
| Cc1nnc2ccc(-c3cc(NC(=O)CCCCCCC(=O)NO)ccc3Oc3ccc(F)cc3F)cn12 |  |  | > 50 | > 50 |  |
| COC(=O)CCCCCCC(=O)Nc1ccc(Oc2ccc(Cl)cc2F)c(-c2ccc3nnc(C)n3c2)c1 |  |  | > 50 | > 50 |  |
| Cc1nnc2ccc(-c3cc(NC(=O)C(C)(C)C)ccc3Oc3ccc(Cl)cc3F)cn12 |  |  | 32.9 | > 50 |  |
| Cc1nnc2ccc(-c3cc(NS(=O)(=O)c4cccs4)ccc3Oc3ccc(Cl)cc3F)cn12 | Active | Active |  |  | Activity [6]: Active |
| Cc1nnc2ccc(-c3cc(NS(=O)(=O)c4ccc(Cl)cc4)ccc3Oc3ccc(F)cc3F)cn12 | Active | Active | > 50 | 17.7 |  |
| Cc1nnc2ccc(-c3cc(NS(=O)(=O)c4ccc(Br)cc4)ccc3Oc3ccc(F)cc3F)cn12 |  |  | 43.9 | > 50 |  |
| Cc1csc2c1C(c1ccc(Cl)cc1)=N[C@@H](CC(=O)OC(C)(C)C)c1nncn1-2 (racemic) | Active | Active |  |  | Activity (PBMC [7]): Non-Toxic; inhibition [8]: Active; Activity (PBMC [9]): Non-Toxic; inhibition [10]: Active; Activity (PBMC [11]): Non-Toxic; Activity [6]: Active; inhibition [12]: Active |
| Cc1nnc2ccc(-c3cc(NS(=O)(=O)c4cccs4)ccc3Oc3ccc(F)cc3F)cn12 | Active | Active | > 50 | 6.6 | Activity [6]: Active |
| CCS(=O)(=O)Nc1ccc(Oc2ccc(F)cc2F)c(-c2cn(C)c(=O)c3[nH]ccc23)c1 | Active | Active |  |  | Activity [6]: Active |
| Cc1nnc2ccc(-c3cc(NS(=O)(=O)C4CC4)ccc3Oc3ccc(F)cc3F)cn12 | Active | Active | > 50 | 4.3 | Activity [6]: Active |
| CCC(=O)Nc1ccc(Oc2ccc(F)cc2F)c(-c2ccc3nnc(C)n3c2)c1 |  |  | > 50 | 17.8 |  |
| O=C1Nc2ccc(Cl)cc2[C@@](C#CC2CC2)(C(F)(F)F)O1 |  |  |  |  | Activity (C8166): Active |
| CCS(=O)(=O)Nc1ccc(Oc2ccc(Cl)cc2F)c(-c2ccc3nnc(C)n3c2)c1 | Active | Active | 12.3 | 5.6 | Activity [6]: Active |
| COc1ccc(S(=O)(=O)Nc2ccc(Oc3ccc(F)cc3F)c(-c3ccc4nnc(C)n4c3)c2)cc1 | Active | Active | > 50 | 6.8 |  |
| C=CS(=O)(=O)Nc1ccc(Oc2ccc(Cl)cc2F)c(-c2ccc3nnc(C)n3c2)c1 | Active | Active | 44.2 | 2 |  |
| Cc1nnc(C(=O)NC(C)(C)c2nc(C(=O)NCc3ccc(F)cc3)c(O)c(=O)n2C)o1 |  |  |  |  | Activity [13]: Active |
| COC(=O)CCCCCCC(=O)Nc1ccc(Oc2ccc(F)cc2F)c(-c2ccc3nnc(C)n3c2)c1 |  |  | > 50 | > 50 |  |
| Cc1nnc2ccc(-c3cc(NS(=O)(=O)c4ccc([N+](=O)[O-])cc4)ccc3Oc3ccc(F)cc3F)cn12 |  |  | > 50 | > 50 |  |
| Cc1nnc2ccc(-c3cc(NS(=O)(=O)c4cccc(Br)c4)ccc3Oc3ccc(F)cc3F)cn12 | Active | Active | > 50 | 17.2 |  |
